Measured values: patent US10800741B2 (ANCUREALL PHARMACEUTICAL (SHANGHAI) CO., LTD., priority 2017, dated 2020)
pIC50: −log10 of the molar value.

Legend:
[1] = system: KATO III (FGFR2 amp); assay: In vitro growth inhibition of KATO III tumor cells (MTT/CCK8); format: cell-based, Human; details: Homo sapiens, KATO III; in vitro growth inhibition (or induction of apoptosis), cells cultured 3 to 5 days, MTT (CCK8); read-out: IC50 KATO III (FGFR2 amp)
[2] = system: KCL-22 (BCR-ABL); assay: In vitro growth inhibition of KCL-22 tumor cells (MTT/CCK8); format: cell-based, Human; details: Homo sapiens, KCL-22; in vitro growth inhibition (or induction of apoptosis), cells cultured 3 to 5 days, MTT (CCK8); read-out: IC50 KCL-22 (BCR-ABL)
[3] = system: RS4:11; assay: In vitro growth inhibition of FLT3 wild type overexpressing cells RS4:11; format: cell-based; details: Homo sapiens, cells over expressing FLT3 wild-type
Method: Adherent cells were digested with 0.25% trypsin-EDTA (Gibco). Suspension culture cells were collected by centrifugation (1700 rpm, 3 minutes). The supernatant was discarded and the cells were counted. According to each cell growth cycle, different concentrations of cells were prepared (5˜10×10^4 cells per ml), and inoculated to 96-well plates (Corning), with 100 μl per well, and incubated overnight at 37° C., 5% CO2. The next day, the test compound was added to the cultured cells (2 wells in parallel). The final concentration of the solvent was less than 1/1,000. The cells were further cultured for 3 to 5 days and assayed by MTT.
The MTT test reagent was a Dojindo CCK8 kit and the Microplate Reader was a THERMO […] FC instrument.
The adherent cells were taken out from the cell culture medium, and immediately added to a freshly prepared complete medium containing 10% CCK8 (5% FBS), 100 ul per hole. The suspended cells were directly added to a CCK8 reagent until reaching a final concentration of 10% and cultured for 1 to 4 hours. When a dark yellow color could be observed in the solvent control wells, the absorbance value at OD450 nm was measured and the cell growth rate was calculated according to the following formula: Cell Growth Rate (%)=100×(T−T0)/(C−T0)
T=optical density of drug-treated cell wells−optical density of blank control wells; T0=optical density of cell wells before drug treatment−optical density of blank control wells; C=optical density of solvent control wells−optical density of blank control wells. […] The experiments were repeated 1 to 3 times and a statistical analysis of data was conducted.
The present compounds which has a high growth inhibition activity on tumor cells positive expressing FLT3-ITD were selected for the determination of IC50 concentration on FLT3 wild tyoverexpressing cells RS4:11 and FLT3 wild-type normal expressing cells Jurkat. The specific test method is the same as that of test example 1.

[4] = system: Karpas 299 (NPM-ALK); assay: In vitro growth inhibition of Karpas 299 tumor cells (MTT/CCK8); format: cell-based, Human; details: Homo sapiens, KARPAS-299; in vitro growth inhibition (or induction of apoptosis), cells cultured 3 to 5 days, MTT (CCK8); read-out: IC50 Karpas 299 (NPM-ALK)
[5] = system: Hep3B2 (FGFR3/4+++); assay: In vitro growth inhibition of Hep3B2 tumor cells (MTT/CCK8); format: cell-based, Human; details: Homo sapiens, Hep3B; in vitro growth inhibition (or induction of apoptosis), cells cultured 3 to 5 days, MTT (CCK8); read-out: IC50 Hep3B2 (FGFR3/4+++)
[6] = system: MOLM-13 (FLT3-ITD); assay: In vitro growth inhibition of MOLM-13 tumor cells (MTT/CCK8); format: cell-based, Human; details: Homo sapiens, MOLM-13; in vitro growth inhibition (or induction of apoptosis), cells cultured 3 to 5 days, MTT (CCK8); read-out: IC50 MOLM-13 (FLT3-ITD)
[7] = system: H1581 (FGFR1 amp); assay: In vitro growth inhibition of H1581 tumor cells (MTT/CCK8); format: cell-based, Human; details: Homo sapiens, NCI-H1581; in vitro growth inhibition (or induction of apoptosis), cells cultured 3 to 5 days, MTT (CCK8); read-out: IC50 H1581 (FGFR1 amp)
[8] = system: Kasumi-1 (KIT N822K); assay: In vitro growth inhibition of Kasumi-1 tumor cells (MTT/CCK8); format: cell-based, Human; details: Homo sapiens, Kasumi 1; in vitro growth inhibition (or induction of apoptosis), cells cultured 3 to 5 days, MTT (CCK8); read-out: IC50 Kasumi-1 (KIT N822K)
[9] = system: H1703 (PDGFRa amp); assay: In vitro growth inhibition of H1703 tumor cells (MTT/CCK8); format: cell-based, Human; details: Homo sapiens, NCI-H1703; in vitro growth inhibition (or induction of apoptosis), cells cultured 3 to 5 days, MTT (CCK8); read-out: IC50 H1703 (PDGFRa amp)

## CNC(=O)c1cc2c(Oc3ccc(NC(=O)Nc4cc(C(C)(C)C)n[nH]4)cc3Cl)ccnc2cc1OC [Compound 54, 4-{4-[3-(5-tert-butyl-2H-pyrazol-3-yl)-ureido]-2-chloro-phenoxy}-7-methoxyquinolin-6-carboxylic acid methylamide]
[1]
  pIC50: 8.26
[2]
  pIC50: 7.62
[3]
  pIC50: 6.27
[4]
  pIC50: 6.95
[5]
  pIC50: 6.81
[6]
  pIC50: 9.57
[7]
  pIC50: 7.27
[8]
  pIC50: 7.58
[9]
  pIC50: 7.15

## C=CC(=O)Nc1cc2c(Oc3ccc(NC(=O)Nc4cc(C(C)(C)C)n[nH]4)cc3Cl)ccnc2cc1OC [Compound 105, N-(4-{4-[3-(5-tert-butyl-2H-pyrazol-3-yl)-ureido]-2-chloro-phenoxy}-7-methoxy-quinolin-6-yl)-acrylamide]
[1]
  pIC50: 8.39
[2]
  pIC50: 7.34
[4]
  pIC50: 6.73
[5]
  pIC50: 7.08
[6]
  pIC50: 9.23
[7]
  pIC50: 7.40
[8]
  pIC50: 7.24
[9]
  pIC50: 7.14

## CCc1cc(NC(=O)Nc2cc(C(C)(C)C)n[nH]2)ccc1Oc1ccnc2cc(OC)c(C(N)=O)cc12 [Compound 106, 4-{4-[3-(5-tert-butyl-2H-pyrazol-3-yl)-ureido]-2-ethyl-phenoxy}-7-methoxy-quinolin-6-carboxamide]
[1]
  pIC50: 7.33
[2]
  pIC50: 6.94
[4]
  pIC50: 6.42
[5]
  pIC50: < 6.00
[6]
  pIC50: 8.03
[7]
  pIC50: 6.78
[8]
  pIC50: 6.75
[9]
  pIC50: 6.92

## COc1cc2nccc(Oc3ccc(NC(=O)Nc4cc(C(C)(C)C)n[nH]4)cc3C(C)C)c2cc1C(N)=O [Compound 107, 4-{4-[3-(5-tert-butyl-2H-pyrazol-3-yl)-ureido]-2-isopropyl-phenoxy}-7-methoxy-quinolin-6-carboxamide]
[1]
  pIC50: 6.46
[2]
  pIC50: 6.23
[4]
  pIC50: 6.12
[5]
  pIC50: < 6.00
[6]
  pIC50: 7.30
[7]
  pIC50: 6.47
[8]
  pIC50: < 6.00
[9]
  pIC50: 6.58

## COc1cc2nccc(Oc3ccc(NC(=O)Nc4cc(C(C)(C)C)n[nH]4)c(C)c3C)c2cc1C(N)=O [Compound 109, 4-{4-[3-(5-tert-butyl-2H-pyrazol-3-yl)-ureido]-2,3-dimethyl-phenoxy}-7-methoxy-quinolin-6-carboxamide]
[1]
  pIC50: 8.81
[2]
  pIC50: 8.61
[4]
  pIC50: 6.25
[5]
  pIC50: 7.01
[6]
  pIC50: 7.73
[7]
  pIC50: 7.75
[8]
  pIC50: 9.33
[9]
  pIC50: 6.97
